Source: ChEMBL document CHEMBL3044799, “Biological activity of the succinate dehydrogenase inhibitor fluopyram against Botrytis cinerea and fungal baseline sensitivity” (Pest Manag Sci, 2012)
≈ marks a conversion by molar mass, not a printed value.

Legend:
[1] = system: Botrytis cinerea; experiment: Protective antifungal activity against Botryotinia fuckeliana inoculated in fungicide-applied strawberry fruit assessed as disease control efficacy at 300 ug AI/ml applied 96 hr prior-inoculation relative to control; type: functional
[2] = system: Botrytis cinerea; experiment: Protective antifungal activity against Botryotinia fuckeliana inoculated in fungicide-applied strawberry fruit assessed as disease severity measuring lesion diameter at 300 ug AI/ml applied 24 hr prior inoculation; type: functional
[3] = system: Botrytis cinerea; experiment: Protective antifungal activity against Botryotinia fuckeliana inoculated in fungicide-applied strawberry fruit assessed as disease control efficacy at 300 ug AI/ml applied 24 hr prior inoculation relative to control; type: functional
[4] = system: Botrytis cinerea; experiment: Curative antifungal activity against Botryotinia fuckeliana inoculated in strawberry fruit assessed as disease control efficacy at 300 ug AI/ml applied 24 hr post-inoculation relative to control; type: functional
[5] = system: Botrytis cinerea; experiment: Antifungal activity against Botryotinia fuckeliana inoculated in strawberry fruit; type: functional, organism-based
[6] = system: Botrytis cinerea; experiment: Protective antifungal activity against Botryotinia fuckeliana inoculated in fungicide-applied strawberry fruit assessed as disease control efficacy at 300 ug AI/ml applied 48 hr prior inoculation relative to control; type: functional
[7] = system: Botrytis cinerea; experiment: Curative antifungal activity against Botryotinia fuckeliana inoculated in strawberry fruit assessed as disease severity measuring lesion diameter at 300 ug AI/ml applied 24 hr post-inoculation; type: functional
[8] = system: Botrytis cinerea; experiment: Curative antifungal activity against Botryotinia fuckeliana inoculated in strawberry fruit assessed as disease severity measuring lesion diameter at 300 ug AI/ml applied 96 hr post-inoculation; type: functional
[9] = system: Botrytis cinerea; experiment: Curative antifungal activity against Botryotinia fuckeliana inoculated in strawberry fruit assessed as disease control efficacy at 300 ug AI/ml applied 48 hr post-inoculation relative to control; type: functional
[10] = system: Botrytis cinerea; experiment: Protective antifungal activity against Botryotinia fuckeliana inoculated in fungicide-applied strawberry fruit assessed as disease severity measuring lesion diameter at 300 ug AI/ml applied 96 hr prior-inoculation; type: functional
[11] = system: Botrytis cinerea; experiment: Curative antifungal activity against Botryotinia fuckeliana inoculated in strawberry fruit assessed as disease control efficacy at 300 ug AI/ml applied 96 hr post-inoculation relative to control; type: functional
[12] = system: Botrytis cinerea; experiment: Protective antifungal activity against Botryotinia fuckeliana inoculated in fungicide-applied strawberry fruit assessed as disease severity measuring lesion diameter at 300 ug AI/ml applied 48 hr prior inoculation; type: functional
[13] = system: Botrytis cinerea; experiment: Curative antifungal activity against Botryotinia fuckeliana inoculated in strawberry fruit assessed as disease severity measuring lesion diameter at 300 ug AI/ml applied 48 hr post-inoculation; type: functional
[14] = system: Botrytis cinerea; experiment: Curative antifungal activity against Botryotinia fuckeliana inoculated in strawberry fruit assessed as disease control efficacy at 100 ug AI/ml applied 24 hr post-inoculation relative to control; type: functional
[15] = system: Botrytis cinerea; experiment: Protective antifungal activity against Botryotinia fuckeliana inoculated in fungicide-applied strawberry fruit assessed as disease control efficacy at 100 ug AI/ml applied 48 hr prior inoculation relative to control; type: functional
[16] = system: Botrytis cinerea; experiment: Curative antifungal activity against Botryotinia fuckeliana inoculated in strawberry fruit assessed as disease control efficacy at 100 ug AI/ml applied 96 hr post-inoculation relative to control; type: functional
[17] = system: Botrytis cinerea; experiment: Protective antifungal activity against Botryotinia fuckeliana inoculated in fungicide-applied strawberry fruit assessed as disease severity measuring lesion diameter at 100 ug AI/ml applied 24 hr prior inoculation; type: functional
[18] = system: Botrytis cinerea; experiment: Curative antifungal activity against Botryotinia fuckeliana inoculated in strawberry fruit assessed as disease control efficacy at 100 ug AI/ml applied 48 hr post-inoculation relative to control; type: functional
[19] = system: Botrytis cinerea; experiment: Curative antifungal activity against Botryotinia fuckeliana inoculated in strawberry fruit assessed as disease severity measuring lesion diameter at 100 ug AI/ml applied 48 hr post-inoculation; type: functional
[20] = system: Botrytis cinerea; experiment: Curative antifungal activity against Botryotinia fuckeliana inoculated in strawberry fruit assessed as disease severity measuring lesion diameter at 100 ug AI/ml applied 24 hr post-inoculation; type: functional
[21] = system: Botrytis cinerea; experiment: Protective antifungal activity against Botryotinia fuckeliana inoculated in fungicide-applied strawberry fruit assessed as disease control efficacy at 100 ug AI/ml applied 96 hr prior-inoculation relative to control; type: functional
[22] = system: Botrytis cinerea; experiment: Protective antifungal activity against Botryotinia fuckeliana inoculated in fungicide-applied strawberry fruit assessed as disease severity measuring lesion diameter at 100 ug AI/ml applied 48 hr prior inoculation; type: functional
[23] = system: Botrytis cinerea; experiment: Protective antifungal activity against Botryotinia fuckeliana inoculated in fungicide-applied strawberry fruit assessed as disease control efficacy at 100 ug AI/ml applied 24 hr prior inoculation relative to control; type: functional
[24] = system: Botrytis cinerea; experiment: Protective antifungal activity against Botryotinia fuckeliana inoculated in fungicide-applied strawberry fruit assessed as disease severity measuring lesion diameter at 100 ug AI/ml applied 96 hr prior-inoculation; type: functional
[25] = system: Botrytis cinerea; experiment: Curative antifungal activity against Botryotinia fuckeliana inoculated in strawberry fruit assessed as disease severity measuring lesion diameter at 100 ug AI/ml applied 96 hr post-inoculation; type: functional

Structure (SMILES): O=C(Nc1ccccc1-c1ccc(Cl)cc1)c1cccnc1Cl [BOSCALID]
- Efficacy [1]: 81.8%
- Activity [2]: 1.5 mm
- Efficacy [3]: 91.7%
- Efficacy [4]: 74.7%
- EC50 [5]: 0.09 µg/mL (≈ 0.262 µM)
- Efficacy [6]: 84%
- Activity [7]: 4.7 mm
- Activity [8]: 13.2 mm
- Efficacy [9]: 94.1%
- Activity [10]: 3.4 mm
- Efficacy [11]: 29.8%
- Activity [12]: 3 mm
- Activity [13]: 1.1 mm

Structure (SMILES): COC(=O)Nc1nc2ccccc2[nH]1 [CARBENDAZIM]
- EC50 [5]: 0.05 µg/mL (≈ 0.262 µM)

Structure (SMILES): Cc1cc(C2CC2)nc(Nc2ccccc2)n1 [CYPRODINIL]
- EC50 [5]: 0.007 µg/mL (≈ 0.0311 µM)

Structure (SMILES): CC1(C(=O)Nc2ccc(O)c(Cl)c2Cl)CCCCC1 [FENHEXAMID]
- Efficacy [14]: 61.4%
- Efficacy [15]: 97.6%
- EC50 [5]: 0.04 µg/mL (≈ 0.132 µM)
- Efficacy [16]: 23.2%
- Activity [17]: 0.1 mm
- Efficacy [18]: 89.2%
- Activity [19]: 2 mm
- Activity [20]: 7.2 mm
- Efficacy [21]: 94.4%
- Activity [22]: 0.4 mm
- Efficacy [23]: 99.2%
- Activity [24]: 1 mm
- Activity [25]: 14.5 mm

Structure (SMILES): N#Cc1c[nH]cc1-c1cccc2c1OC(F)(F)O2 [FLUDIOXONIL]
- EC50 [5]: 0.003 µg/mL (≈ 0.0121 µM)

Structure (SMILES): CC(C)NC(=O)N1CC(=O)N(c2cc(Cl)cc(Cl)c2)C1=O [IPRODIONE]
- EC50 [5]: 0.25 µg/mL (≈ 0.757 µM)

Structure (SMILES): COC(=O)N(OC)c1ccccc1COc1ccn(-c2ccc(Cl)cc2)n1 [PYRACLOSTROBIN]
- EC50 [5]: 0.01 µg/mL (≈ 0.0258 µM)
